Molecular target: T1, PDE9A2 (Homo sapiens, UniProt O76083)
T1 construct: purchased Reaction Biology Corporation, Malvern, Pa
Experiment: Phosphodiesterase Enzyme Screening Assay, PDE9A2 (Caliper LabChip mobility-shift)
Format: biochemical
Conditions: 10 concentrations, 4.0 μM cGMP substrate, 1 hour at R.T.; read-out: Band (PDE9A2 IC50)
Excerpt: Compounds of the invention were screened against PDE1A, PDE1B, PDE2A, PDE3A, PDE3B, PDE4A1A, PDE4B1, PDE4D3, PDE5A1, PDE6C, PDE7A, PDE8A1, PDE9A2, PDE10A2 AND PDE11A isoforms of the phosphodiesterase enzyme to determine activity and overall selectivity through comparative analysis. The assay generally consists of testing the compounds of the invention at 10 concentrations. Where 8-methoxy-IBMX and Zaprinast were used as reference inhibitors.
The phosphodiesterase enzyme isoforms were obtained from a commercial retailer (Reaction Biology Corporation, Malvern, Pa.) for use in the instant screening assay.
The analysis was completed using the Caliper LabChip 3000 and a 12-sipper LabChip. LabChip assays are separations-based, meaning that the product and substrate are electrophoretically separated, thereby minimizing interferences and yielding the highest data quality available on any screening platform. Z′ factors for both the EZ Reader and LC3000 enzymatic assays are routinely in the 0.8 to 0.9 range. High Z′ values, few false positives, few false negatives and analytical quality reproducibility are the reasons cited for the increasing reliance on the LabChip assays.
The off-chip incubation mobility-shift phosphodiesterase assay uses a microfluidic chip to measure the conversion of a fluorescent cyclic AMP substrate to a 5′-AMP product, or a cyclic GMP substrate to a 5′-GMP product. The reaction mixture, from a microtiter plate well, is introduced through a capillary sipper onto the chip, where the fluorescent substrate and product are separated by electrophoresis and detected via laser-induced fluorescence. […] The precision of microfluidics allows researchers to detect subtle interactions between drug candidates and therapeutic targets. The technology is able to detect both strong and weak inhibitors with high accuracy, and routinely identifies drug candidates that conventional techniques miss.
Reactions were carried out in 100 mM HEPES (pH 7.5), 5 mM MgCl2, 1 mM DTT, 0.003% Brij, 4.0 μM cGMP substrate. The reaction was started by addition of cGMP or cAMP and incubated for 1 hour at R.T. The reaction was terminated by the addition of stop buffer containing 100 mM HEPES (pH 7.5), 15 mM EDTA, 0.015% Brij-35, 5% DMSO. Cyclic AMP/GMP substrate and 5′-AMP/5′-GMP product were separated by charge using electrophoretic mobility shift. Product formed was compared to control wells to determine inhibition or enhancement of enzyme activity.
One or more reference compounds, depending on phosphodiesterase isoform, selected from 8-methoxy-IBMX, Zaprinast, Trequinsin, Pentoxifyline, Rolipram, and Vinpocetine, Dipyridamole, and BRL-50481 were run alongside client samples to ensure data quality. The resulting IC50 is compared against the historical average and must be within 3-fold of this average.
Data points were averages of quadruplicate wells and error bars represented the SEM for each point. IC50s were determined using GraphPad Prism Version 5.01 and the log (inhibitor) vs. response variable slope curve fit.

T1 sequence (O76083 1-533 isoform O76083-2): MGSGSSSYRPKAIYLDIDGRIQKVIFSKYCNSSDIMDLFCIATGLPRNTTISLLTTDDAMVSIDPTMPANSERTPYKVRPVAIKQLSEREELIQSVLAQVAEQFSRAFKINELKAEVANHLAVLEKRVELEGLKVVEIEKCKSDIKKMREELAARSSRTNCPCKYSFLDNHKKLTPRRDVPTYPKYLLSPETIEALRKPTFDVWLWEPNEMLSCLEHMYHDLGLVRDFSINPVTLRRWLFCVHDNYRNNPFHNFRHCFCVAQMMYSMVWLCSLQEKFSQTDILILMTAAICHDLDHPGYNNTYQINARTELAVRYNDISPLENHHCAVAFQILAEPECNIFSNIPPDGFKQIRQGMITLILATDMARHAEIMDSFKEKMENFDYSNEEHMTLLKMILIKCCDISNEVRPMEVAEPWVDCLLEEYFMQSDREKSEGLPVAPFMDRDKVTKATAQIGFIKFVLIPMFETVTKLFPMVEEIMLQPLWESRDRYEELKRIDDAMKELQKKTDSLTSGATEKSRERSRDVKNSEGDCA

| Structure (SMILES) | IC50 [nM] |
| --- | --- |
| Cc1ccc(Cl)cc1-c1ncc2c(=O)[nH]c([C@@H]3CNC[C@H]3C)nn12 (relative stereo) [(−)-7-(5-chloro-2-methylphenyl)-2-((3,4-trans)-4-methylpyrrolidin-3-yl)imidazo[5,1-f][1,2,4]triazin-4(3H)-one] | 1000 to 10000 |
| C[C@@H]1CN(Cc2ccccc2F)C[C@H]1c1nn2c(C3CCOCC3)ncc2c(=O)[nH]1 (single isomer, unassigned) [(+)-2-((3,4-trans)-1-(2-fluorobenzyl)-4-methylpyrrolidin-3-yl)-7-(tetrahydro-2H-pyran-4-yl)imidazo[5,1-f][1,2,4]triazin-4(3H)-one] | < 1000 |
| C[C@@H]1CN(Cc2ccc(F)cc2)C[C@H]1c1nn2c(C3CCOCC3)ncc2c(=O)[nH]1 (single isomer, unassigned) [(+)-2-((3,4-trans)-1-(4-fluorobenzyl)-4-methylpyrrolidin-3-yl)-7-(tetrahydro-2H-pyran-4-yl)imidazo[5,1-f][1,2,4]triazin-4(3H)-one] | < 1000 |
| COc1cccc(CN2C[C@@H](C)[C@H](c3nn4c(C5CCOCC5)ncc4c(=O)[nH]3)C2)n1 (single isomer, unassigned) [(+)-2-((3,4-trans)-1-((6-methoxypyridin-2-yl)methyl)-4-methylpyrrolidin-3-yl)-7-(tetrahydro-2H-pyran-4-yl)imidazo[5,1-f][1,2,4]triazin-4(3H)-one] | < 1000 |
| C[C@@H]1CN(Cc2cn3ncccc3n2)C[C@H]1c1nn2c(C3CCOCC3)ncc2c(=O)[nH]1 (single isomer, unassigned) [(+)-2-((3,4-trans)-1-(imidazo[1,2-b]pyridazin-2-ylmethyl)-4-methylpyrrolidin-3-yl)-7-(tetrahydro-2H-pyran-4-yl)imidazo[5,1-f][1,2,4]triazin-4(3H)-one] | < 1000 |
| C[C@@H]1CN(Cc2ccc3nccn3n2)C[C@H]1c1nn2c(C3CCOCC3)ncc2c(=O)[nH]1 (single isomer, unassigned) [(+)-2-((3,4-trans)-1-(imidazo[1,2-b]pyridazin-6-ylmethyl)-4-methylpyrrolidin-3-yl)-7-(tetrahydro-2H-pyran-4-yl)imidazo[5,1-f][1,2,4]triazin-4(3H)-one] | < 1000 |
| CCS(=O)(=O)N1CCC(c2ncc3c(=O)[nH]c([C@@H]4CN(Cc5ccccc5)C[C@H]4C)nn23)CC1 (single isomer, unassigned) [(+)-2-((3,4-trans)-1-benzyl-4-methylpyrrolidin-3-yl)-7-(1-(ethylsulfonyl)piperidin-4-yl)imidazo[5,1-f][1,2,4]triazin-4(3H)-one] | < 1000 |
| C[C@@H]1CN(Cc2ccccc2)C[C@H]1c1nn2c(C(C)(C)O)ncc2c(=O)[nH]1 (single isomer, unassigned) [(+)-2-((3,4-trans)-1-benzyl-4-methylpyrrolidin-3-yl)-7-(2-hydroxypropan-2-yl)imidazo[5,1-f][1,2,4]triazin-4(3H)-one] | 1000 to 10000 |
| C[C@@H]1CN(Cc2ccccc2)C[C@H]1c1nn2c(C3CCC(F)(F)CC3)ncc2c(=O)[nH]1 (single isomer, unassigned) [(+)-2-((3,4-trans)-1-benzyl-4-methylpyrrolidin-3-yl)-7-(4,4-difluorocyclohexyl)imidazo[5,1-f][1,2,4]triazin-4(3H)-one] | < 1000 |
| Cc1cc(F)ccc1-c1ncc2c(=O)[nH]c([C@@H]3CN(Cc4ccccc4)C[C@H]3C)nn12 (single isomer, unassigned) [(+)-2-((3,4-trans)-1-benzyl-4-methylpyrrolidin-3-yl)-7-(4-fluoro-2-methylphenyl)imidazo[5,1-f][1,2,4]triazin-4(3H)-one] | < 1000 |
| Cc1ccc(Cl)cc1-c1ncc2c(=O)[nH]c([C@@H]3CN(Cc4ccccc4)C[C@H]3C)nn12 (single isomer, unassigned) [(+)-2-((3,4-trans)-1-benzyl-4-methylpyrrolidin-3-yl)-7-(5-chloro-2-methylphenyl)imidazo[5,1-f][1,2,4]triazin-4(3H)-one] | < 1000 |
| C[C@@H]1CN(Cc2ccccc2)C[C@H]1c1nn2c(-c3ccoc3)ncc2c(=O)[nH]1 (single isomer, unassigned) [(+)-2-((3,4-trans)-1-benzyl-4-methylpyrrolidin-3-yl)-7-(furan-3-yl)imidazo[5,1-f][1,2,4]triazin-4(3H)-one] | < 1000 |
| C[C@@H]1CN(Cc2cnccn2)C[C@H]1c1nn2c(C3CCOCC3)ncc2c(=O)[nH]1 (single isomer, unassigned) [(+)-2-((3,4-trans)-4-methyl-1-(pyrazin-2-ylmethyl)pyrrolidin-3-yl)-7-(tetrahydro-2H-pyran-4-yl)imidazo[5,1-f][1,2,4]triazin-4(3H)-one] | < 1000 |
| C[C@@H]1CN(Cc2ccccn2)C[C@H]1c1nn2c(C3CCOCC3)ncc2c(=O)[nH]1 (single isomer, unassigned) [(+)-2-((3,4-trans)-4-methyl-1-(pyridin-2-ylmethyl)pyrrolidin-3-yl)-7-(tetrahydro-2H-pyran-4-yl)imidazo[5,1-f][1,2,4]triazin-4(3H)-one] | < 1000 |
| C[C@@H]1CN(Cc2ncccn2)C[C@H]1c1nn2c(C3CCOCC3)ncc2c(=O)[nH]1 (single isomer, unassigned) [(+)-2-((3,4-trans)-4-methyl-1-(pyrimidin-2-ylmethyl)pyrrolidin-3-yl)-7-(tetrahydro-2H-pyran-4-yl)imidazo[5,1-f][1,2,4]triazin-4(3H)-one] | < 1000 |
| C[C@@H]1CN(Cc2ncc3ccccc3n2)C[C@H]1c1nn2c(C3CCOCC3)ncc2c(=O)[nH]1 (single isomer, unassigned) [(+)-2-((3,4-trans)-4-methyl-1-(quinazolin-2-ylmethyl)pyrrolidin-3-yl)-7-(tetrahydro-2H-pyran-4-yl)imidazo[5,1-f][1,2,4]triazin-4(3H)-one] | < 1000 |
| C[C@@H]1CN(Cc2ccc3ccccc3n2)C[C@H]1c1nn2c(C3CCOCC3)ncc2c(=O)[nH]1 (single isomer, unassigned) [(+)-2-((3,4-trans)-4-methyl-1-(quinolin-2-ylmethyl)pyrrolidin-3-yl)-7-(tetrahydro-2H-pyran-4-yl)imidazo[5,1-f][1,2,4]triazin-4(3H)-one] | < 1000 |
| CCS(=O)(=O)N1CCC(c2ncc3c(=O)[nH]c([C@@H]4CN(Cc5ncccn5)C[C@H]4C)nn23)CC1 (single isomer, unassigned) [(+)-7-(1-(ethylsulfonyl)piperidin-4-yl)-2-((3,4-trans)-4-methyl-1-(pyrimidin-2-ylmethyl)pyrrolidin-3-yl)imidazo[5,1-f][1,2,4]triazin-4(3H)-one] | 1000 to 10000 |
| CC(=O)N1CCC(c2ncc3c(=O)[nH]c([C@@H]4CN(Cc5ccccc5)C[C@H]4C)nn23)CC1 (single isomer, unassigned) [(+)-7-(1-acetylpiperidin-4-yl)-2-((3,4-trans)-1-benzyl-4-methylpyrrolidin-3-yl)imidazo[5,1-f][1,2,4]triazin-4(3H)-one] | < 1000 |
| CC(=O)N1CCC(c2ncc3c(=O)[nH]c([C@@H]4CN(Cc5ncccn5)C[C@H]4C)nn23)CC1 (single isomer, unassigned) [(+)-7-(1-acetylpiperidin-4-yl)-2-((3,4-trans)-4-methyl-1-(pyrimidin-2-ylmethyl)pyrrolidin-3-yl)imidazo[5,1-f][1,2,4]triazin-4(3H)-one] | 1000 to 10000 |
| C[C@@H]1CN(Cc2ncccn2)C[C@H]1c1nn2c(C3CCC(F)(F)CC3)ncc2c(=O)[nH]1 (single isomer, unassigned) [(+)-7-(4,4-difluorocyclohexyl)-2-((3,4-trans)-4-methyl-1-(pyrimidin-2-ylmethyl)pyrrolidin-3-yl)imidazo[5,1-f][1,2,4]triazin-4(3H)-one] | < 1000 |
| C[C@@H]1CN(Cc2cccc(F)c2)C[C@H]1c1nn2c(C3CCOCC3)ncc2c(=O)[nH]1 (single isomer, unassigned) [(−)-2-((3,4-trans)-1-(3-fluorobenzyl)-4-methylpyrrolidin-3-yl)-7-(tetrahydro-2H-pyran-4-yl)imidazo[5,1-f][1,2,4]triazin-4(3H)-one] | < 1000 |

Reference: patent publication US9540380B2, “Imidazotriazinone compounds” (Ironwood Pharmaceuticals, Inc., priority 2010, dated 2017)
